Reference: PubChem BioAssay AID248 (DTP/NCI, 2004)
Where “and” joins values, the source holds several entries; their conditions need not be identical. Identical values can stand only once. Inconclusive results and toxic doses are left out. Cut-off read from the data, not from the text of the source: active = T/C of 150% or more; inactive = T/C below 125%.

Tested on: L1210 leukemia ip in BDF1 mice, survival T/C
Assay: NCI In Vivo Anticancer Drug Screen. Data for tumor model L1210 Leukemia (intraperitoneal) in B6D2F1 (BDF1) mice
Conditions: endpoint: mean survival time, higher = longer survival
Outline: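 Value reflects the ratio of survival in compound-treated mice to survival in vehicle-treated controls, with both groups carrying the same transplanted tumor.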

[1] = dose: 100.0 mg/kg/injection, schedule: Q04DX003 (ip), vehicle: saline
[2] = dose: 200.0 mg/kg/injection, schedule: Q04DX003 (ip), vehicle: saline
[3] = dose: 100.0 mg/kg/injection, schedule: Q01DX009 (ip), vehicle: Klucel (hydroxypropylcellulose) (HPC)
[4] = dose: 100.0 mg/kg/injection, schedule: Q04DX003 (ip), vehicle: Klucel (hydroxypropylcellulose) (HPC)
[5] = dose: 200.0 mg/kg/injection, schedule: Q01DX009 (ip), vehicle: Klucel (hydroxypropylcellulose) (HPC)
[6] = dose: 200.0 mg/kg/injection, schedule: Q04DX003 (ip), vehicle: Klucel (hydroxypropylcellulose) (HPC)
[7] = dose: 400.0 mg/kg/injection, schedule: Q04DX003 (ip), vehicle: Klucel (hydroxypropylcellulose) (HPC)
[8] = dose: 75.0 mg/kg/injection, schedule: Q01DX001 (ip), vehicle: carboxymethylcellulose (CMC)
[9] = dose: 400.0 mg/kg/injection, schedule: Q04DX003 (ip), vehicle: saline
[10] = dose: 25.0 mg/kg/injection, schedule: Q01DX009 (ip), vehicle: saline with Tween-80
[11] = dose: 100.0 mg/kg/injection, schedule: Q04DX003 (ip), vehicle: saline with Tween-80

Measured: T/C

CCCCCCCCS(=O)(O)=S.[Fe]
inactive: dose: 75.0 mg/kg/injection, schedule: Q01DX001 (ip), vehicle: saline 93 % of control | dose: 150.0 mg/kg/injection, schedule: Q01DX001 (ip), vehicle: saline 91 % of control | dose: 300.0 mg/kg/injection, schedule: Q01DX001 (ip), vehicle: saline 91 % of control

Cc1cc([NH-])c([NH-])cc1C.[Cl][Pt+2][Cl]
inactive: dose: 25.0 mg/kg/injection, schedule: Q01DX009 (ip), vehicle: other 119 % of control | dose: 50.0 mg/kg/injection, schedule: Q04DX003 (ip), vehicle: other 104 % of control | dose: 50.0 mg/kg/injection, schedule: Q04DX003 (ip), vehicle: saline 112 % of control and 119 % of control | dose: 100.0 mg/kg/injection, schedule: Q04DX003 (ip), vehicle: other 119 % of control | [1] 107 % of control and 113 % of control | [2] 93 % of control
active: dose: 18.0 mg/kg/injection, schedule: Q01DX009 (ip), vehicle: water 150 % of control

COC(=O)C1=C[N+](C)(C)N=C1[O-]
inactive: dose: 100.0 mg/kg/injection, schedule: Q01DX009 (ip), vehicle: saline 97 % of control | dose: 200.0 mg/kg/injection, schedule: Q01DX009 (ip), vehicle: saline 94 % of control | dose: 400.0 mg/kg/injection, schedule: Q01DX009 (ip), vehicle: saline 93 % of control

O=C1OC(=O)C2C1C1CCC2(C2OCCO2)O1 (stereo unspecified)
inactive: dose: 100.0 mg/kg/injection, schedule: Q04DX002 (ip), vehicle: Klucel (hydroxypropylcellulose) (HPC) 93 % of control | dose: 200.0 mg/kg/injection, schedule: Q04DX002 (ip), vehicle: Klucel (hydroxypropylcellulose) (HPC) 101 % of control | dose: 400.0 mg/kg/injection, schedule: Q04DX002 (ip), vehicle: Klucel (hydroxypropylcellulose) (HPC) 101 % of control

O=C1CCCc2cc3c(cc21)CCCC3
inactive: [3] 96 % of control | [4] 109 % of control | [5] 97 % of control | [6] 107 % of control | [7] 102 % of control

CCNC(=O)Nc1ncn[nH]1
inactive: [8] 102 % of control | dose: 150.0 mg/kg/injection, schedule: Q01DX001 (ip), vehicle: carboxymethylcellulose (CMC) 98 % of control

O=P(O)(O)O
inactive: dose: 75.0 mg/kg/injection, schedule: Q04DX003 (ip), vehicle: saline 93 % of control | dose: 150.0 mg/kg/injection, schedule: Q04DX003 (ip), vehicle: saline 98 % of control | dose: 300.0 mg/kg/injection, schedule: Q04DX003 (ip), vehicle: saline 103 % of control

CC(=O)Nn1nnnc1N
inactive: [1] 99 % of control | [2] 91 % of control | [9] 105 % of control

O=NN(CCCl)C(=O)NC1CSCSC1
inactive: dose: 45.0 mg/kg/injection, schedule: Q01DX001 (ip), vehicle: other 107 % of control
active: dose: 7.0 mg/kg/injection, schedule: Q01DX001 (ip), vehicle: other 284 % of control | dose: 10.0 mg/kg/injection, schedule: Q01DX001 (ip), vehicle: other 322 % of control | dose: 15.0 mg/kg/injection, schedule: Q01DX001 (ip), vehicle: other 333 % of control | dose: 25.0 mg/kg/injection, schedule: Q01DX001 (ip), vehicle: other 168 % of control | dose: 30.0 mg/kg/injection, schedule: Q01DX001 (ip), vehicle: other 277 % of control

O=C1C(c2[nH]c3cc4c(cc3c2O)OCO4)=Nc2cc3c(cc21)OCO3
inactive: dose: 50.0 mg/kg/injection, schedule: Q01DX001 (ip), vehicle: saline 100 % of control | dose: 100.0 mg/kg/injection, schedule: Q01DX001 (ip), vehicle: saline 103 % of control | dose: 200.0 mg/kg/injection, schedule: Q01DX001 (ip), vehicle: saline 97 % of control | dose: 400.0 mg/kg/injection, schedule: Q01DX001 (ip), vehicle: saline 94 % of control

CCCCCCCCCCCCCCC(F)C(=O)OCC1OC(CO)(OC2OC(CO)C(O)C(O)C2O)C(O)C1O (stereo unspecified)
inactive: [10] 98 % of control | dose: 50.0 mg/kg/injection, schedule: Q01DX009 (ip), vehicle: saline with Tween-80 100 % of control | [11] 107 % of control

COc1ccc(NC(=O)Nc2cccc(Cl)c2C)cc1
inactive: dose: 100.0 mg/kg/injection, schedule: Q01DX009 (sc), vehicle: olive oil, sesame oil, peanut oil 100 % of control | dose: 100.0 mg/kg/injection, schedule: Q04DX003 (sc), vehicle: olive oil, sesame oil, peanut oil 100 % of control | dose: 200.0 mg/kg/injection, schedule: Q01DX009 (sc), vehicle: olive oil, sesame oil, peanut oil 96 % of control | dose: 200.0 mg/kg/injection, schedule: Q04DX003 (sc), vehicle: olive oil, sesame oil, peanut oil 98 % of control | dose: 400.0 mg/kg/injection, schedule: Q01DX009 (sc), vehicle: olive oil, sesame oil, peanut oil 100 % of control | dose: 400.0 mg/kg/injection, schedule: Q04DX003 (sc), vehicle: olive oil, sesame oil, peanut oil 101 % of control

COc1ccc(/C=C(\CC(=O)O)C(=O)O)cc1OC
inactive: [3] 92 % of control | [4] 96 % of control | [5] 95 % of control | [6] 91 % of control | dose: 400.0 mg/kg/injection, schedule: Q01DX009 (ip), vehicle: Klucel (hydroxypropylcellulose) (HPC) 95 % of control | [7] 102 % of control

CC1CC(C)(C)OCO1 (stereo unspecified)
inactive: [4] 100 % of control | [6] 93 % of control | [7] 86 % of control

C=C1CC(C)(c2ccc(S(=O)(=O)N3CCCC3)cc2)OC1=O (stereo unspecified)
inactive: dose: 18.0 mg/kg/injection, schedule: Q01DX009 (ip), vehicle: Klucel (hydroxypropylcellulose) (HPC) 108 % of control | dose: 37.5 mg/kg/injection, schedule: Q01DX009 (ip), vehicle: Klucel (hydroxypropylcellulose) (HPC) 95 % of control | dose: 75.0 mg/kg/injection, schedule: Q01DX009 (ip), vehicle: Klucel (hydroxypropylcellulose) (HPC) 104 % of control | dose: 87.5 mg/kg/injection, schedule: Q01DX009 (ip), vehicle: Klucel (hydroxypropylcellulose) (HPC) 104 % of control

Cn1nnc(N/N=C/c2ccccc2)n1
inactive: dose: 6.25 mg/kg/injection, schedule: Q04DX003 (ip), vehicle: saline with Tween-80 100 % of control | dose: 12.5 mg/kg/injection, schedule: Q04DX003 (ip), vehicle: saline with Tween-80 107 % of control | [10] 94 % of control | dose: 25.0 mg/kg/injection, schedule: Q04DX003 (ip), vehicle: saline with Tween-80 94 % of control and 109 % of control | dose: 50.0 mg/kg/injection, schedule: Q04DX003 (ip), vehicle: saline with Tween-80 95 % of control | [11] 88 % of control

COC(=O)C1OC(n2cnc3c(Cl)ncnc32)C(OC(C)=O)C(OC(C)=O)C1OC(C)=O (stereo unspecified)
inactive: dose: 50.0 mg/kg/injection, schedule: Q01DX001 (ip), vehicle: carboxymethylcellulose (CMC) 100 % of control | dose: 100.0 mg/kg/injection, schedule: Q01DX001 (ip), vehicle: carboxymethylcellulose (CMC) 108 % of control | dose: 200.0 mg/kg/injection, schedule: Q01DX001 (ip), vehicle: carboxymethylcellulose (CMC) 103 % of control | dose: 400.0 mg/kg/injection, schedule: Q01DX001 (ip), vehicle: carboxymethylcellulose (CMC) 97 % of control

Cc1[nH]nc(C(F)(F)F)c1N=NN1CCC(C(N)=O)CC1
inactive: [8] 95 % of control

CCCCCCCCCCCCCCCCCCn1cnc2c(=S)nc[nH]c21
inactive: dose: 12.5 mg/kg/injection, schedule: Q01DX005 (ip), vehicle: other 106 % of control | dose: 25.0 mg/kg/injection, schedule: Q01DX005 (ip), vehicle: other 98 % of control | dose: 50.0 mg/kg/injection, schedule: Q01DX005 (ip), vehicle: other 95 % of control | dose: 100.0 mg/kg/injection, schedule: Q01DX005 (ip), vehicle: other 104 % of control | dose: 200.0 mg/kg/injection, schedule: Q01DX005 (ip), vehicle: other 90 % of control

O=C(CCl)c1ccc(O)c(O)c1
inactive: dose: 6.25 mg/kg/injection, schedule: Q01DX009 (ip), vehicle: saline 94 % of control | dose: 12.5 mg/kg/injection, schedule: Q01DX009 (ip), vehicle: saline 105 % of control | dose: 33.0 mg/kg/injection, schedule: Q01DX001 (ip), vehicle: other 105 % of control | dose: 50.0 mg/kg/injection, schedule: Q01DX001 (ip), vehicle: other 108 % of control | dose: 75.0 mg/kg/injection, schedule: Q01DX001 (ip), vehicle: other 109 % of control | dose: 112.0 mg/kg/injection, schedule: Q01DX001 (ip), vehicle: other 108 % of control

Cc1noc(-n2c(C)ccc2C)c1C
inactive: [1] 97 % of control | [2] 100 % of control | [9] 95 % of control
